The values that follow come from PMC5968561, “An effective strategy for recapitulating N-terminal heptad repeat trimers in enveloped virus surface glycoproteins for therapeutic applications” (Chemical Science, 2015).

Like-named read-outs stand apart in the source and are kept apart here. Positions of bridges follow the written chain, without caps; N, C: chain ends. Chains are numbered I, II in the order given.

The CC50 is the concentration at which the toxic effect on the cells reaches its halfway point.

The subject of data set [1] is HIV-1 NL4-3(D36G). In words: Activity against T20-sensitive strain. The data set is classed as cell-based. The settings on record: triplicate, mean ± SD, read-out: EC50, NL4-3 mutant D36G.
For data set [2], the system named is US4/GS 007 (B, R5). In words: Infection by primary HIV-1 isolate, p24 ELISA. The settings on record: CEMx174 5.25M7 cells, 100 TCID50, p24 ELISA day 7; triplicate, mean ± SD; read-out: EC50 for inhibiting US4/GS 007 (B, R5). The format is cell-based. As to the method:
(§1) HIV-1 infection assay. To measure the inhibitory activity of the peptides on infection of R5 primary HIV-1 isolates, US4/GS 007 (subtype B), 93IN101 (subtype C), and 92TH009 (subtype A/E), 50 µl of an inhibitor at graded concentration in triplicate was incubated with the same volume of a primary HIV-1 isolate at 100 TCIID50 at 37 °C for 30 min, followed by addition of 100 µl of CEMx174 5.25M7 cells (5×10^5/ml). After incubation at 37 °C overnight, the culture medium was replaced with fresh medium without inhibitor. On day 7 postinfection, the culture supernatants were collected for measuring p24 by ELISA, and the percent inhibition and EC50 values were calculated using Calcusyn
A general note: ELISA stands for enzyme-linked immunosorbent assay.

Data set [3] concerns 92TH009 (A/E, R5). In words: Infection by primary HIV-1 isolate, p24 ELISA. The note with it: CEMx174 5.25M7 cells, 100 TCID50, p24 ELISA day 7; triplicate, mean ± SD; read-out: EC50 for inhibiting 92TH009 (A/E, R5). The format is cell-based. As to the method:
as §1

The test system of data set [4] is HIV-1 NL4-3 (36G)V38A. The note with it: read-out: EC50, NL4-3 mutant (36G)V38A; T20-resistant strain; triplicate, mean ± SD.
Data set [5] is described as follows: Metabolic stability in rat plasma. The format is in vitro ADME. The note with it: 10 μg/mL, LC-MS/MS, compared with T20. As to the method: (§2) Tricine-sodium dodecyl sulfate-polyacrylamide gel electrophoresis (Tricine-SDS-PAGE). Polyacrylamide gels (12%) and a BayGene Mini Cell were used for Tricine-SDS-PAGE. The cathode buffer consisted of 0.1 M Tricine, 0.1 M Tris, and 1% SDS, and the anode buffer was 0.2 M Tris. After incubation at 37 °C for 0–24 h, the samples were mixed with Tris-SDS-glycine sample buffer (Invitrogen, Carlsbad, CA) at a ratio of 1:1 and then loaded onto the gels (20 μL/well). Gel electrophoresis was first carried out at a constant voltage of 60 V at room temperature for 1 h and then carried out at a constant voltage of 120 V at room temperature for 2 h. The gel was then stained with Bio-Rad Bio-Safe […]
(§3) Binding assays by size-exclusion chromatography. C34 was mixed with N-peptides (final concentration = 0.20 mM) at a molar ratio of 1:1 in PBS (pH 7.4) and incubated at 37 °C for 30 min. The peptide or peptide mixture (20 μL) was applied to a Phenomenex BioSep-SEC-s2000, 300 mm × 7.80 mm HPLC column equilibrated with PBS (pH 7.4) and eluted at 0.6 mL/min, and the fractions were monitored at 210 nm. Column pressure was 3.5 Mpa.
(§4) Qualification assay. Chromatographic analyses were performed using an ODS-C8 column (5 μm, 100 mm × 2.0mm ID) kept at ambient temperature. The mobile phase was composed of acetonitrile-water-formic acid in the ratio of 60:40:0.1 (v/v/v) at a flow rate of 0.3 mL/min. […]

A short description of data set [6]: Sedimentation velocity analysis (SVA). The format is physicochemical. Details: Sedimentation coefficient: unit not given here. The note with it: 120 μM in PBS pH 7.4, 60,000 rpm, 20 °C. As to the method:
Sedimentation velocity analysis (SVA). All measurements were performed on a ProteomelabTMXL-A/XL-I analytical ultracentrifuge (Beckman Coulter, Fullerton, CA, USA) at 20 °C, as described previously. In brief, three-channel cells were used with an An-60 Tirotor. Lyophilized N-peptides were resuspended in ddH2O (pH 7.0) at ~1 mg/mL. The individual proteins and their mixtures with an equimolar amount of C34 peptide were prepared in PBS and incubated at 37 °C for 30 min. All samples were prepared at a final concentration of 120 μM and were initially scanned at 3000 rpm for 10 min to identify the appropriate wavelength for data collection. Data were collected at 60,000 rpm at a wavelength […]
of 280 nm. […]

The subject of data set [7] is HIV-1BaL. The data set is classed as cell-based.
The nature of data set [8]: Metabolic stability in liver homogenate. The format is in vitro ADME. The settings on record: SD rat, pooled from 3 rats, 4 mL Tris–HCl 50 mM pH 7.4 per g, 9,000 g supernatant, 10 μg/mL, 37°C, 0-120 min, LC-MS/MS, compared with T20.
Data set [9] deals with HIV-1 Env-mediated cell–cell fusion. The note with it: read-out: EC50 for inhibiting cell–cell fusion; HL2/3 and TZM-bl cells coincubated 6–8 h, 37°C, luciferase; triplicate, mean ± SD.
Description: Cell-cell fusion assay. Cell-cell fusion assays were performed as described previously.1 HL2/3 cells, which stably
express HIV Gag, Env, Tat, Rev, and Nef proteins, as well as TZM-bl cells, which stably express large amounts of CD4
and CCR5, were obtained from the NIH AIDS Reference and Reagent Program (contributed by Drs. Barbara Felber and
George Pavlakis and Drs. John C. Kappes and Xiaoyun Wu, respectively). TZM-bl cells (2.5 × 10^4/well) and HL2/3 cells
(7.5 × 10^4/well) were coincubated in 96-well plates (Corning Costar) at 37°C in 5% CO2 in the presence of different
concentrations of inhibitors. After incubation for 6–8 h, the medium was aspirated, the cells were washed and lysed, and
luciferase activity was measured using the Luciferase Assay System (Promega, Madison, WI) on a SpectraMax M5 plate
reader (Molecular Devices, Sunnyvale, CA).
Data set [10] has as its system HIV-1 NL4-3 (36G)V38A/N42T. The note with it: read-out: EC50, NL4-3 mutant (36G)V38A/N42T; T20-resistant strain; triplicate, mean ± SD.
The test system of data set [11] is HIV-1IIIB. The data set is classed as cell-based.
Data set [12] deals with HIV-1 NL4-3 (36G)V38E/N42S. The settings on record: read-out: EC50, NL4-3 mutant (36G)V38E/N42S; T20-resistant strain; triplicate, mean ± SD.
A short description of data set [13]: CD spectroscopy and CD thermal denaturation. The format is physicochemical. The note with it: 10 μM peptide in PBS pH 7.4. The source says: software as described above. 2
Circular dichroism (CD) spectroscopy.

Data set [14] deals with proteinase K (Parengyodontium album, UniProt P06873). In words: Metabolic stability in proteinase K solution. The data set is classed as in vitro ADME. The settings on record: 10 μg/mL, LC-MS/MS, compared with T20. As to the method: as §2, §3, §4
Sequence of proteinase K (P06873 106-384): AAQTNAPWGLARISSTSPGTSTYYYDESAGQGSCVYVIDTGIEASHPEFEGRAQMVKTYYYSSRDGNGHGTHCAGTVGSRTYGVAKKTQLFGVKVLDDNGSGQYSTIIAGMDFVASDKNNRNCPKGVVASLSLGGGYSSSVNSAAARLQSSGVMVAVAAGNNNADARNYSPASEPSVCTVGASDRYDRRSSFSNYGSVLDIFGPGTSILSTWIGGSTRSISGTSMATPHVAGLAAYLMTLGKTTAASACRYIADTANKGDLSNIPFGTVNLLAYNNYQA
The nature of data set [15]: Metabolic stability in kidney homogenate. The data set is classed as in vitro ADME. The settings on record: SD rat, pooled from 3 rats, 4 mL Tris–HCl 50 mM pH 7.4 per g, 9,000 g supernatant, 10 μg/mL, 37°C, 0-120 min, LC-MS/MS, compared with T20.
Data set [16] is described as follows: Cytotoxicity, XTT assay. The note with it: human, MT-2 cells, 4 days at 37°C, triplicate, mean ± SD. The data set is classed as cell-based. (In general: Tetrazolium assays rely on reduction of a dye to a coloured formazan, in cell work by metabolically active cells.)
Data set [17] deals with 93IN101 (C, R5). The format is cell-based, HIV-1. As to the method:
as §1

Where [18] appears, read: triplicate, mean ± SD, read-out: EC50 for inhibiting HIV-1BaL infection.
The mark [19] stands for this setting: triplicate, mean ± SD, read-out: EC50 for inhibiting HIV-1IIIB infection.
Setting [20] is: CEMx174 5.25M7 cells, 100 TCID50, p24 ELISA day 7, triplicate, mean ± SD, read-out: EC50 for inhibiting 93IN101 (C, R5).

In the case of “I: Ac-SGIVQKINNIERAIEAQQHLLQLTVWGIKQLQARIL-NH2 / II: Ac-SGIVQKINNIERAIEAQQHLLQLTVWGIKQLQARIL-NH2 / III: Ac-SGIVQKINNIERAIEAQQHLLQLTVWGIKQLQARIL-NH2 (amide I:6-III:11, I:11-II:6, II:11-III:6) [(N36M)3]”, the EC50 in data set [1] is 20.2 ± 2.7 nM; in data set [2], 9.4 ± 1.2 nM; in data set [3], 1.5 ± 0.1 nM; in data set [4], 14.5 ± 1.5 nM; in data set [7] (setting [18]) it was 8.6 ± 3.1 nM; in data set [9], 4 ± 0.4 nM. The EC50 came to 10.2 ± 1.3 nM in data set [10], 2.67 ± 0.1 nM in data set [11] (setting [19]), 6 ± 3.7 nM in [12] and 5.9 ± 2 nM in [17] (setting [20]). In data set [5], the “Metabolic stability in rat plasma” value was “dramatically increased in vitro metabolic stability over T20”. The same substance displayed a Sedimentation coefficient in data set [6] (280 nm, SEDFIT) of 1.39. For the same substance, the “Observed molecular mass (SVA)” value in [6] (oligomeric state) was 12.5 kDa. Besides, the “Metabolic stability in liver homogenate” value in [8] is listed as “dramatically increased in vitro metabolic stability over T20”. Further, the “Tm (thermal unfolding transition)” value in data set [13] (CD at 222 nm, 15 to 90 °C at 2 °C/min) is greater than 90 °C. This substance also had a Helicity in [13] (CD, mean residue ellipticity at 222 nm) of 82%. For the same substance, in [14], the “Metabolic stability in proteinase K solution” value is reported as “dramatically increased in vitro metabolic stability over T20”. The “Metabolic stability in kidney homogenate” value in [15] is “dramatically increased in vitro metabolic stability over T20”. Besides, the CC50 at 96 h in data set [16] was greater than 50 µM.
For “I: Ac-SEIVKKINNIERAIEAQQHLLQLTVWGIKQLQARIL-NH2 / II: Ac-SEIVKKINNIERAIEAQQHLLQLTVWGIKQLQARIL-NH2 / III: Ac-SEIVKKINNIERAIEAQQHLLQLTVWGIKQLQARIL-NH2 (amide I:6-III:11, I:11-II:6, II:11-III:6) [(N36MEK1)3]”, the EC50 in [1] turned out to be 106 ± 16 nM; in data set [2] it was 29.2 ± 11.2 nM; in data set [3], 14.5 ± 4.1 nM; in data set [4] it was 126 ± 31 nM; in [7] (setting [18]), 74.3 ± 6.5 nM; in data set [9], 59 ± 8.7 nM. Moreover, the EC50 turned out to be 71 ± 6.1 nM in [10], 11.2 ± 4.9 nM in [11] (setting [19]), 22.2 ± 2.8 nM in data set [12] and 20.1 ± 5.6 nM in data set [17] (setting [20]). The CC50 at 96 h in data set [16] was 17.3 ± 1.6 µM.
With Enfuvirtide, the EC50 amounted to 20.4 ± 2.9 nM in data set [2]; 19 ± 0.5 nM in [3]; 620 ± 103 nM in data set [4]; 34.1 ± 9.4 nM in data set [7]; 1.2 ± 0.01 nM in data set [9]; 539 ± 33 nM in [10]. Moreover, the EC50 is 57.8 ± 3.2 nM in data set [11], greater than 2000 nM in data set [12] and 22.1 ± 0.9 nM in data set [17].
On to “I: Ac-SEIVKKINNIERAIEAQQKLLQLTVWGIKQLQARIL-NH2 / II: Ac-SEIVKKINNIERAIEAQQKLLQLTVWGIKQLQARIL-NH2 / III: Ac-SEIVKKINNIERAIEAQQKLLQLTVWGIKQLQARIL-NH2 (amide I:6-III:11, I:11-II:6, II:11-III:6) [(N36MEK2)3]”, for which the EC50 in data set [1] came out at 19.4 ± 1.9 nM; in data set [2], 7.1 ± 2.5 nM; in data set [3] it was 1.5 ± 0.6 nM; in data set [4], 21.7 ± 2.3 nM; in [7] (setting [18]) it was 20.4 ± 2.5 nM; in data set [9], 27.1 ± 2.5 nM. Besides, the EC50 in data set [10] came out at 8.1 ± 1.2 nM; in data set [11] (setting [19]), 4.7 ± 0.6 nM; in data set [12], 4.9 ± 2.9 nM; in data set [17] (setting [20]) it was 5.2 ± 0.9 nM. This substance yielded a CC50 at 96 h in [16] of 18.9 ± 2.6 µM.
